Data published in patent US5026858A, “Piperidine derivative” (Walton S.A., priority 1976, dated 1991).
Structures can show the parent of a compound that is named as a salt. Where two headings read alike, the source gives them in different places.

What was measured:
[1] = target: T1, dopamine sensitive adenylate cyclase of rat straitum (Rattus norvegicus, UniProt P18901); experiment: inhibition of dopamine sensitive adenylate cyclase of rat striatum; assay type: biochemical
T1 construct: adenylate cyclase of rat straitum; from tissue; host or cells: rat striatum
T1 sequence (P18901 whole entry): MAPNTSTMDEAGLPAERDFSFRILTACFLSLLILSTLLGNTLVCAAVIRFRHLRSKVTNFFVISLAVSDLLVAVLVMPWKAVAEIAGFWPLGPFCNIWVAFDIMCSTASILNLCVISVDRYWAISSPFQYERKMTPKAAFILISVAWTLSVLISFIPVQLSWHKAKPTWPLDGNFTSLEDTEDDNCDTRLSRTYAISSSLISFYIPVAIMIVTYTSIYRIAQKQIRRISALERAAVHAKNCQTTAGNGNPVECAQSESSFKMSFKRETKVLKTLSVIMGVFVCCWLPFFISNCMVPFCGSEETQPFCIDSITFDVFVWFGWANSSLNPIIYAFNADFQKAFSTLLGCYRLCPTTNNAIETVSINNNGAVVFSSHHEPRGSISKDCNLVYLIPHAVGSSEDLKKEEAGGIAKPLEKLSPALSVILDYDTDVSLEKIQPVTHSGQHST

[2] = test system: apomorphineinduced gnawing behaviour; experiment: inhibition of apomorphine-induced gnawing behaviour in the rat (oral); assay type: in vivo
Text: | ^(b) Approximate oral ED50 value for inhibition of | apomorphineinduced gnawing behaviour in the rat (mg kg^-1) and | ^(b) Approximate oral ED50 value for inhibition of | apomorphineinduced gnawing behaviour in the rat (mg kg^-1) and […]

[3] = target: T2, [3H]haloperidol binding, rat limbic forebrain membranes (Rattus norvegicus, UniProt P61169); experiment: displacement of [3H]haloperidol from rat limbic forebrain membranes; conditions: Table 1, read-out: Displacement [3H]Haloperidol limbic: approximate KI
T2 construct: striatal and limbic forebrain membranes; from tissue; host or cells: rat limbic forebrain membranes
T2 sequence (P61169 whole entry): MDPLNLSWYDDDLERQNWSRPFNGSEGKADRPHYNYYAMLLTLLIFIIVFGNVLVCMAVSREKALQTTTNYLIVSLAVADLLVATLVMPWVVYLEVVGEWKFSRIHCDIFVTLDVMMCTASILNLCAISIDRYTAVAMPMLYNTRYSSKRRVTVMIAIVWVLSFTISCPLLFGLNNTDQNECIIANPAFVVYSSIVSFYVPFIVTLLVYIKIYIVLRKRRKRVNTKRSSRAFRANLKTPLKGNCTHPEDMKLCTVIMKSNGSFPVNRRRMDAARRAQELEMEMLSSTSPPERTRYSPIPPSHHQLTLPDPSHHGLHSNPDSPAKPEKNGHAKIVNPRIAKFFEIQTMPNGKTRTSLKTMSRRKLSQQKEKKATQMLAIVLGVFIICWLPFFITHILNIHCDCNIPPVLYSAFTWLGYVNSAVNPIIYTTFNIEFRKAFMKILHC
Text: (§1) ^(f) Approximate KI (nM) for displacement of [3Hhaloperidol from rat
(§2) striatal and limbic forebrain membranes.

[4] = test system: apomorphineinduced vomiting; experiment: inhibition of apomorphine-induced vomiting in the dog (oral); assay type: in vivo; conditions: Canis lupus familiaris
Text: | ^(b) Approximate oral ED50 value for inhibition of | apomorphineinduced gnawing behaviour in the rat (mg kg^-1) and | vomiting in the dog (μg kg^-1) | ^(b) Approximate oral ED50 value for inhibition of | apomorphineinduced gnawing behaviour in the rat (mg kg^-1) and | vomiting in the dog (μg kg^-1)

[5] = target: T3, [3H]haloperidol binding, rat striatal membranes (Rattus norvegicus, UniProt P61169); experiment: displacement of [3H]haloperidol from rat striatal membranes; conditions: Table 1, read-out: Displacement [3H]Haloperidol striatum: approximate KI
T3 construct: striatal and limbic forebrain membranes; from tissue; host or cells: rat striatal membranes
T3 sequence (P61169 whole entry): as above
Text: as §1, §2

[6] = rat striatum, Table 1, read-out: Dopamine sensitive aden-cyclase: approximate KI
[7] = approximate ED50, Table 1, read-out: Anti-apomorphine rat: approximate oral ED50 for inhibition of apomorphine-induced gnawing
[8] = approximate ED50, Table 1, read-out: Anti-apomorphine dog: approximate oral ED50 for inhibition of apomorphine-induced vomiting
[9] = approximate ED50, Table 2, read-out: Antiapomorphine rat: approximate oral ED50 for inhibition of apomorphine-induced gnawing
[10] = approximate ED50, Table 2, read-out: Antiapomorphine dog: approximate oral ED50 for inhibition of apomorphine-induced vomiting

For COc1cc(N)c([N+](=O)[O-])cc1C(=O)NC1CCN(Cc2ccccc2)CC1 [MeO, NH2, NO2, H, phenyl, H, H, H, --, N-(1-Benzylpiperid-4-yl)-2-methoxy-4-amino-5-nitrobenzamide], the Ki [1, 6] was 5 nM, the ED50 [2, 7] was 140 mg/kg and the Ki [3] was 1 nM. For the same molecule, the ED50 [4, 8] was < 0.05 mg/kg and the Ki [5] was 20 nM.

For CCOc1cc(N)c([N+](=O)[O-])cc1C(=O)NC1CCN(CC2=CCC=CC2)CC1 [compound 4, N-(1-cyclohexa-1',4'-dienylmethylpiperid-4-yl)-2-ethoxy-4-amino-5-nitrobenzamide], the ED50 [2, 9] was 50 mg/kg and the ED50 [4, 10] was < 0.05 mg/kg.

With COc1cc(N)c(Cl)cc1C(=O)NC1CCN(Cc2ccccc2)CC1 [Clebopride hydrochloride, reference compound] the Ki [1, 6] was 5 nM, the ED50 [2, 9] was 2.5 mg/kg and the Ki [3] was 5 nM. For the same molecule, the ED50 [4, 10] was 0.04 mg/kg and the Ki [5] was 25 nM.

In the case of CCN1CCCC1CNC(=O)c1cc(S(N)(=O)=O)ccc1OC (stereo not drawn) [Sulpiride, reference compound], the ED50 [2, 7] is reported as > 800 mg/kg and the ED50 [4, 8] is reported as 0.141 mg/kg.

In the case of CCOc1cc(N)c([N+](=O)[O-])cc1C(=O)NC1CCN(CC2=CCC(C)=CC2)CC1 [compound 5, N-[1-(4-methylcyclohexa-1,4-dienyl)methylpiperid-4-yl]-2-ethoxy-4-amino-5-nitrobenzamide], the ED50 [2, 9] is reported as 40 mg/kg and the ED50 [4, 10] is reported as < 0.05 mg/kg.

With COc1cc(N)c([N+](=O)[O-])cc1C(=O)NC1CCN(CC2=CCC=CC2)CC1 [compound 2, N-(1-Cyclohexa-1',4'-dienylmethylpiperid-4-yl)-2-methoxy-4-amino-5-nitrobenzamide] the ED50 [2, 9] was 60 mg/kg and the ED50 [4, 10] was < 0.05 mg/kg.

COc1cc(N)c([N+](=O)[O-])cc1C(=O)NC1CCN(Cc2ccc(C)cc2)CC1 [N-(1-p-methylbenzylpiperid-4-yl)-2-methoxy-4-amino-5-nitrobenzamide] was tested, and the ED50 [4, 8] was < 0.05 mg/kg.

CCN(CC)CCNC(=O)c1cc(Cl)c(N)cc1OC [Metoclopramide, reference compound] gave a Ki [1] of 60 nM, an ED50 [2, 7] of 13.6 mg/kg and an ED50 [4, 8] of 0.45 mg/kg.

In the case of COc1cc(N)c([N+](=O)[O-])cc1C(=O)NC1CCN(CCC2=CCC=CC2)CC1 [compound 3, N-[1-(2-cyclohexa-1',4'-dienylethyl)piperid-4-yl]-2-methoxy-4-amino-5-nitrobenzamide], the ED50 [2, 9] is reported as > 300 mg/kg and the ED50 [4, 10] is reported as > 0.5 mg/kg.

For CCOc1cc(N)c([N+](=O)[O-])cc1C(=O)NC1CCN(Cc2ccccc2)CC1 [EtO, NH2, NO2, H, phenyl, H, H, H, --, N-(1-benzylpiperid-4-yl)-2-ethoxy-4-amino-5-nitrobenzamide], the ED50 [4, 8] was < 0.05 mg/kg.

COc1cc(N)c([N+](=O)[O-])cc1C(=O)NC1CCN(CC2=CCC(C)=CC2)CC1 [compound 6, N-[1-(4-methylcyclohexa-1,4-dienyl)methylpiperid-4-yl]-2-methoxy-4-amino-5-nitrobenzamide] was tested, and the ED50 [2, 9] was 35 mg/kg and the ED50 [4, 10] was < 0.05 mg/kg.

With COc1cc(N)c([N+](=O)[O-])cc1C(=O)NC1CCN(CCc2ccccc2)CC1 [MeO, NH2, NO2, H, phenyl, H, H, H, CH2, N-(1-phenethylpiperid-4-yl)-2-methoxy-4-amino-5-nitrobenzamide] the Ki [1, 6] was 1 nM, the ED50 [2, 7] was 800 mg/kg and the Ki [3] was 1 nM. For the same molecule, the ED50 [4, 8] was > 5 mg/kg and the Ki [5] was 10 nM.

With COc1cc(N)c([N+](=O)[O-])cc1C(=O)NC1CCN(Cc2ccc(Cl)cc2)CC1 [N-(1-p-chlorobenzylpiperid-4-yl)-2-methoxy-4-amino-5-nitrobenzamide] the ED50 [4, 8] was < 0.05 mg/kg.
